The values below come from publication PMC7913291, “Synthesis and Anti-Hepatocarcinoma Effect of Amino Acid Derivatives of Pyxinol and Ocotillol” (Molecules, 2021).

The assay has as its system HepG2 cells. The experiment in a line: Cytotoxic activity on HepG2 cells (CCK-8 assay). It is filed as cell-based. Conditions: Homo sapiens, HepG2; CCK-8, 48 h, mean of three experiments ±SD; read-out: IC50 over HepG2 cells. The procedure:
Human hepatocellular liver carcinoma cell line (HepG2) were obtained from Institute of Biochemistry and Cell Biology, Academy of Science (Shanghai, China) and were authenticated using the STR profiling method. HepG2 cells were cultured in MDEM (Gibco, Waltham, MA, USA) supplemented with 10% fetal bovine serum (FBS) and 1% penicillin-streptomycin bubbled with 5% CO2-enriched air at a temperature of 37 °C (Thermo Scientific, Waltham, MA, USA). The cytotoxic effect of compounds on HepG2 cells was assessed by using CCK-8 method. Briefly, HepG2 cells were cultured in 96-well plates at a density of 5 × 10^3 cells per well for 24 h. […] Three replicates were performed. The relative cell viability was expressed as percentage relative to the untreated cells. The inhibition ratio was calculated. The IC50 values were calculated using Logistic regression from three independent tests.

The structures appear in SMILES notation.

Regarding `C[C@H](NC(=O)OC(C)(C)C)C(=O)O[C@H]1CC[C@@]2(C)C(CC[C@]3(C)C2C[C@@H](O)C2C([C@]4(C)CC[C@H](C(C)(C)O)O4)CC[C@]23C)C1(C)C` (stereo partly drawn) [1a, (20S, 24R)-Epoxy-3β-O-(Boc-L-alanyl)-dammarane-12β, 25-diol], the half-maximal inhibitory concentration (IC50) was found to be 26.3 ± 0.72 µM. Turning to `CSCC[C@H](NC(=O)OC(C)(C)C)C(=O)O[C@H]1CC[C@@]2(C)C(CC[C@]3(C)C2C[C@@H](O)C2C([C@]4(C)CC[C@H](C(C)(C)O)O4)CC[C@]23C)C1(C)C` (stereo partly drawn) [1b, (20S, 24R)-Epoxy-3β-O-(Boc-L-methinyl)-dammarane-12β, 25-diol], the IC50 was 73.5 ± 2.6 µM.

In the case of `CC(C)(C)OC(=O)NCC(=O)O[C@H]1CC[C@@]2(C)C(CC[C@]3(C)C2C[C@@H](O)C2C([C@]4(C)CC[C@H](C(C)(C)O)O4)CC[C@]23C)C1(C)C` (stereo partly drawn) [1c, (20S, 24R)-Epoxy-3β-O-(Boc-L-glycyl)-dammarane-12β, 25-diol], the IC50 was 26.6 ± 1.52 µM.

Turning to `CC(C)C[C@H](NC(=O)OC(C)(C)C)C(=O)O[C@H]1CC[C@@]2(C)C(CC[C@]3(C)C2C[C@@H](O)C2C([C@]4(C)CC[C@H](C(C)(C)O)O4)CC[C@]23C)C1(C)C` (stereo partly drawn) [1d, (20S, 24R)-Epoxy-3β-O-(Boc-L-leucyl)-dammarane-12β,25-diol], the IC50 came to 73.1 ± 1.67 µM. Regarding `CC(C)(C)OC(=O)N1CCCC1C(=O)O[C@H]1CC[C@@]2(C)C(CC[C@]3(C)C2C[C@@H](O)C2C([C@]4(C)CC[C@H](C(C)(C)O)O4)CC[C@]23C)C1(C)C` (stereo partly drawn) [1e, (20S, 24R)-Epoxy-3β-O-(Boc-L-prolyl)-dammarane-12β, 25-diol], the IC50 is 30.5 ± 2.98 µM.

For the compound `CC(C)[C@H](NC(=O)OC(C)(C)C)C(=O)O[C@H]1CC[C@@]2(C)C(CC[C@]3(C)C2C[C@@H](O)C2C([C@]4(C)CC[C@H](C(C)(C)O)O4)CC[C@]23C)C1(C)C` (stereo partly drawn) [1f, (20S, 24R)-Epoxy-3β-O-(Boc-L-valyl)-dammarane-12β, 25-diol], the IC50 stood at 62.1 ± 3.78 µM. With `C[C@H](N)C(=O)O[C@H]1CC[C@@]2(C)C(CC[C@]3(C)C2C[C@@H](O)C2C([C@]4(C)CC[C@H](C(C)(C)O)O4)CC[C@]23C)C1(C)C` (stereo partly drawn) [2a, (20S, 24R)-Epoxy-3β-O-(L-alanyl)-dammarane-12β, 25-diol], the IC50 was 16.5 ± 1.66 µM. Consider `CSCC[C@H](N)C(=O)O[C@H]1CC[C@@]2(C)C(CC[C@]3(C)C2C[C@@H](O)C2C([C@]4(C)CC[C@H](C(C)(C)O)O4)CC[C@]23C)C1(C)C` (stereo partly drawn) [2b, (20S, 24R)-Epoxy-3β-O-(L-methinyl)-dammarane-12β, 25-diol], for which the IC50 turned out to be 20.3 ± 2.04 µM. Consider `CC(C)(O)[C@H]1CC[C@@](C)(C2CC[C@]3(C)C2[C@H](O)CC2[C@@]4(C)CC[C@H](OC(=O)CN)C(C)(C)C4CC[C@]23C)O1` (stereo partly drawn) [2c, (20S, 24R)-Epoxy-3β-O-(L-glycyl)-dammarane-12β, 25-diol], for which the IC50 is 16.3 ± 0.31 µM.

Consider `CC(C)C[C@H](N)C(=O)O[C@H]1CC[C@@]2(C)C(CC[C@]3(C)C2C[C@@H](O)C2C([C@]4(C)CC[C@H](C(C)(C)O)O4)CC[C@]23C)C1(C)C` (stereo partly drawn) [2d, (20S, 24R)-Epoxy-3β-O-(L-leucyl)-dammarane-12β, 25-diol], for which the IC50 is 20.1 ± 3.49 µM.

For `CC(C)[C@H](N)C(=O)O[C@H]1CC[C@@]2(C)C(CC[C@]3(C)C2C[C@@H](O)C2C([C@]4(C)CC[C@H](C(C)(C)O)O4)CC[C@]23C)C1(C)C` (stereo partly drawn) [2f, (20S, 24R)-Epoxy-3β-O-(L-valyl)-dammarane-12β, 25-diol], the IC50 was 19.7 ± 1.96 µM. As for `C[C@H](NC(=O)OC(C)(C)C)C(=O)O[C@H]1CC[C@@]2(C)C([C@@H](O)C[C@]3(C)C2C[C@@H](O)C2C([C@]4(C)CC[C@H](C(C)(C)O)O4)CC[C@]23C)C1(C)C` (stereo partly drawn) [3a, (20S, 24R)-Epoxy-3β-O-(Boc-L-alanyl)-dammarane-6α,12β,25-triol], the IC50 was determined as 61 ± 1.57 µM. On to `CSCC[C@H](NC(=O)OC(C)(C)C)C(=O)O[C@H]1CC[C@@]2(C)C([C@@H](O)C[C@]3(C)C2C[C@@H](O)C2C([C@]4(C)CC[C@H](C(C)(C)O)O4)CC[C@]23C)C1(C)C` (stereo partly drawn) [3b, (20S, 24R)-Epoxy-3β-O-(Boc-L-methinyl)-dammarane-6α,12β,25-triol], for which the IC50 came to 88.6 ± 5.03 µM. In the case of `CC(C)(C)OC(=O)NCC(=O)O[C@H]1CC[C@@]2(C)C([C@@H](O)C[C@]3(C)C2C[C@@H](O)C2C([C@]4(C)CC[C@H](C(C)(C)O)O4)CC[C@]23C)C1(C)C` (stereo partly drawn) [3c, (20S, 24R)-Epoxy-3β-O-(Boc-L-glycyl)-dammarane-6α,12β,25-triol] it was 32.6 ± 1.55 µM; in that of `CC(C)C[C@H](NC(=O)OC(C)(C)C)C(=O)O[C@H]1CC[C@@]2(C)C([C@@H](O)C[C@]3(C)C2C[C@@H](O)C2C([C@]4(C)CC[C@H](C(C)(C)O)O4)CC[C@]23C)C1(C)C` (stereo partly drawn) [3d, (20S, 24R)-Epoxy-3β-O-(Boc-L-leucyl)-dammarane-6α,12β,25-triol], 74.9 ± 2.87 µM.

As to `CC(C)(C)OC(=O)N1CCCC1C(=O)O[C@H]1CC[C@@]2(C)C([C@@H](O)C[C@]3(C)C2C[C@@H](O)C2C([C@]4(C)CC[C@H](C(C)(C)O)O4)CC[C@]23C)C1(C)C` (stereo partly drawn) [3e, (20S, 24R)-Epoxy-3β-O-(Boc-L-prolyl)-dammarane-6α,12β,25-triol], the IC50 is 41.8 ± 2.58 µM. For `CC(C)[C@H](NC(=O)OC(C)(C)C)C(=O)O[C@H]1CC[C@@]2(C)C([C@@H](O)C[C@]3(C)C2C[C@@H](O)C2C([C@]4(C)CC[C@H](C(C)(C)O)O4)CC[C@]23C)C1(C)C` (stereo partly drawn) [3f, (20S, 24R)-Epoxy-3β-O-(Boc-L-valyl)-dammarane-6α,12β,25-triol], the IC50 came out at 80.1 ± 2.03 µM. Turning to `C[C@H](N)C(=O)O[C@H]1CC[C@@]2(C)C([C@@H](O)C[C@]3(C)C2C[C@@H](O)C2C([C@]4(C)CC[C@H](C(C)(C)O)O4)CC[C@]23C)C1(C)C` (stereo partly drawn) [4a, (20S, 24R)-Epoxy-3β-O-(L-alanyl)-dammarane-6α,12β,25-triol], the IC50 was 34 ± 0.9 µM. With `CSCC[C@H](N)C(=O)O[C@H]1CC[C@@]2(C)C([C@@H](O)C[C@]3(C)C2C[C@@H](O)C2C([C@]4(C)CC[C@H](C(C)(C)O)O4)CC[C@]23C)C1(C)C` (stereo partly drawn) [4b, (20S, 24R)-Epoxy-3β-O-(L-methinyl)-dammarane-6α,12β,25-triol], the IC50 amounted to 50.6 ± 0.62 µM. In the case of `CC(C)(O)[C@H]1CC[C@@](C)(C2CC[C@]3(C)C2[C@H](O)CC2[C@@]4(C)CC[C@H](OC(=O)CN)C(C)(C)C4[C@@H](O)C[C@]23C)O1` (stereo partly drawn) [4c, (20S, 24R)-Epoxy-3β-O-(-L-glycyl)-dammarane-6α,12β,25-triol] it was 20.6 ± 2.47 µM; in that of `CC(C)C[C@H](N)C(=O)O[C@H]1CC[C@@]2(C)C([C@@H](O)C[C@]3(C)C2C[C@@H](O)C2C([C@]4(C)CC[C@H](C(C)(C)O)O4)CC[C@]23C)C1(C)C` (stereo partly drawn) [4d, (20S, 24R)-Epoxy-3β-O-(L-leucyl)-dammarane-6α,12β,25-triol], 35.4 ± 1.59 µM. For the compound `CC(C)(O)[C@H]1CC[C@@](C)(C2CC[C@]3(C)C2[C@H](O)CC2[C@@]4(C)CC[C@H](OC(=O)C5CCCN5)C(C)(C)C4[C@@H](O)C[C@]23C)O1` (stereo partly drawn) [4e, (20S, 24R)-Epoxy-3β-O-(L-prolyl)-dammarane-6α,12β,25-triol], the IC50 stood at 24.6 ± 0.35 µM.

On to `CC(C)[C@H](N)C(=O)O[C@H]1CC[C@@]2(C)C([C@@H](O)C[C@]3(C)C2C[C@@H](O)C2C([C@]4(C)CC[C@H](C(C)(C)O)O4)CC[C@]23C)C1(C)C` (stereo partly drawn) [4f, (20S, 24R)-Epoxy-3β-O-(L-valyl)-dammarane-6α,12β,25-triol], for which the IC50 was found to be 44.7 ± 3.07 µM.
